In ChEMBL document CHEMBL1128610, “Synthesis of potential -lactam antibiotics” (1995) one finds MIC data, which are given here for 8 compounds.

In assay [1] the test system is Staphylococcus aureus. The experiment in a line: Compound was evaluated for antibacterial activity against Staphylococcus aureus ATCC 29213; Inactive. In kind it is functional, organism-based.
Assay [2] deals with Escherichia coli. The experiment in a line: Compound was evaluated for antibacterial activity against Escherichia coli ATCC 25922; Inactive. In kind it is functional, organism-based.
In assay [3] the test system is Escherichia coli. Nature of the assay: Minimum inhibitory concentration required for antibacterial activity against Escherichia coli ATCC 25922. In kind it is functional.
For assay [4], the system named is Staphylococcus aureus. The experiment in a line: Minimum inhibitory concentration required for antibacterial activity against Staphylococcus aureus ATCC 29213. It is filed as functional.

Activity calls are given as the source filed them. The rule behind the calls is not given here. Some results are limits rather than exact numbers.

A word on the MIC: it is the lowest concentration that inhibits growth of the organism. Regarding `CO/N=C(\C(=O)N[C@H]1CON(C(Oc2ccc(F)cc2)C(=O)O)C1=O)c1csc(N)n1` (stereo in doubt; 4d), the MIC entry in assay [1] and in assay [2] was “inactive” each time.
As to `CCOC(C(=O)[O-])N1OC[C@H](NC(=O)c2ccccc2)C1=O.[K+]` (stereo partly specified), the MIC in assay [3] and in assay [4] was greater than 1000 µg/mL in each case.
On to `CO/N=C(\C(=O)N[C@H]1CON(C(Oc2ccc(Cl)cc2)C(=O)O)C1=O)c1csc(N)n1` (stereo in doubt; 4f), for which the MIC entry in assay [1] and in assay [2] was “inactive” in each case.
With `O=C(COc1ccccc1)N[C@H]1CON(S(=O)(=O)[O-])C1=O.[K+]`, the MIC in assay [3] and in assay [4] was greater than 500 µg/mL each time.
Take `CO/N=C(\C(=O)N[C@H]1CON(C(Oc2ccc(Cl)cc2)C(=O)O)C1=O)c1csc(N)n1` (stereo in doubt; 4g): the MIC entry in assay [1] and in assay [2] was “inactive” throughout.
Consider `CO/N=C(\C(=O)N[C@H]1CON(C(Oc2ccccc2)C(=O)O)C1=O)c1csc(N)n1` (stereo in doubt; 4b), for which the MIC result in assay [1] and in assay [2] was “inactive” in each case.
For the compound `CO/N=C(\C(=O)N[C@H]1CON(C(Oc2ccc(F)cc2)C(=O)O)C1=O)c1csc(N)n1` (stereo in doubt; 4e), the MIC result in assay [1] and in assay [2] was “inactive” throughout.
Regarding `CO/N=C(\C(=O)N[C@H]1CON(C(Oc2ccccc2)C(=O)O)C1=O)c1csc(N)n1` (stereo in doubt; 4c), the MIC result in assay [1] and in assay [2] was “inactive” throughout.
